Reference: patent publication US20240342138A1, “MICROTUBULE TARGETING AGENTS” (BPGbio, Inc., priority 2023, published 2024)
Where two headings read alike, the source gives them in different places.

Assay: Biodistribution after oral administration
Type: in vivo, Sprague-Dawley Rats
Details: 75 mg/kg oral; for concentration at 8 h / Kp at 8 h / concentration at 0.25 h / Kp at 0.25 h / concentration at 2 h / Kp at 2 h: male, Sprague-Dawley, rat; for concentration at 8 h / concentration at 0.25 h / concentration at 2 h: read-out: Mean plasma/tissue concentration; for Kp at 8 h / Kp at 0.25 h / Kp at 2 h: read-out: Ratio (tissue to plasma)
Procedure: Male Sprague-Dawley Rats (total of 6 animals) 6 to 8 weeks of age (210-227 g) was used in this biodistribution study. Compound 1 was dosed at 75 mg/kg to all animals through oral route of administration at a 10 ml/kg dose volume. Compound 1 formulation was freshly prepared in Tween-80+0.5% methyl cellulose and maintained at room temperature until dosing. Dose was administered in all animals under fasted conditions. […] Heart, lung, liver, kidney, stomach, small intestine, large intestine, skeletal muscle, brain, spleen, pancreas and adipose were harvested while blood was processed to plasma for bioanalytical quantification of Compound 1.
Compound 1 bioanalytical assay was developed and validated using the SCIEX 6500 LC-MS/MS. A mobile phase (isocratic flow) comprised of Acetonitrile and 0.2% formic acid in MilliQ water in a Atlantis dC18-HPLC column (50×4.6 mm, […]), with a flow rate of 0.9 mL/min and a run time of 2.20 min. Mass transition (m/z) of 375.040 and 188.100 was used for detection of Compound 1 at an LLOQ of 2.14 ng/mL.

**Q.** What does the source list for COc1ccccc1-c1nc(CNC(=O)c2ccccc2OC(F)F)n[nH]1 [Compound 1, 2-(difluoromethoxy)-N-[[5-(2-methoxyphenyl)-1H-1,2,4-triazol-3-yl]methyl]benzamide]?
**A.** Tissue distribution: Drug distribution was revealed across all tissues; Blood brain barrier penetration (8 hours): brain barrier penetration observed; Percentage (plasma to tissue) (Adipose tissue, 0.25 hours): 1.94%; Percentage (plasma to tissue) (Adipose tissue, 2 hours): 2.36%; Percentage (plasma to tissue) (Adipose tissue, 8 hours): 3.06%; Percentage (plasma to tissue) (Brain, 0.25 hours): 0.79%; Percentage (plasma to tissue) (Brain, 2 hours): 0.57%; Percentage (plasma to tissue) (Brain, 8 hours): 2.18%; Percentage (plasma to tissue) (Heart, 0.25 hours): 1.89%; Percentage (plasma to tissue) (Heart, 2 hours): 2.59%; Percentage (plasma to tissue) (Heart, 8 hours): 4.19%; Percentage (plasma to tissue) (Kidney, 0.25 hours): 2.99%; Percentage (plasma to tissue) (Kidney, 2 hours): 2.92%; Percentage (plasma to tissue) (Kidney, 8 hours): 4.16%; Percentage (plasma to tissue) (Liver, 0.25 hours): 12.5%; Percentage (plasma to tissue) (Liver, 2 hours): 10.6%; Percentage (plasma to tissue) (Liver, 8 hours): 16.5%; Percentage (plasma to tissue) (Lungs, 0.25 hours): 3.91%; Percentage (plasma to tissue) (Lungs, 2 hours): 2.93%; Percentage (plasma to tissue) (Lungs, 8 hours): 5.06%; Percentage (plasma to tissue) (Pancreas, 0.25 hours): 3.42%; Percentage (plasma to tissue) (Pancreas, 2 hours): 3.18%; Percentage (plasma to tissue) (Pancreas, 8 hours): 7.60%; Percentage (plasma to tissue) (Plasma, 0.25 hours): 3.59%; Percentage (plasma to tissue) (Plasma, 2 hours): 2.29%; Percentage (plasma to tissue) (Plasma, 8 hours): 5.37%; Percentage (plasma to tissue) (Skeletal Muscle, 0.25 hours): 0.77%; Percentage (plasma to tissue) (Skeletal Muscle, 2 hours): 0.85%; Percentage (plasma to tissue) (Skeletal Muscle, 8 hours): 20.5%; Percentage (plasma to tissue) (Small intestine, 0.25 hours): 21.9%; Percentage (plasma to tissue) (Small intestine, 2 hours): 21.9%; Percentage (plasma to tissue) (Small intestine, 8 hours): 4.82%; Percentage (plasma to tissue) (Spleen, 0.25 hours): 4.26%; Percentage (plasma to tissue) (Spleen, 2 hours): 1.68%; Percentage (plasma to tissue) (Spleen, 8 hours): 7.84%; Percentage (plasma to tissue) (Stomach, 0.25 hours): 42.7%; Percentage (plasma to tissue) (Stomach, 2 hours): 48.1%; Percentage (plasma to tissue) (Stomach, 8 hours): 18.8%; concentration at 8 h (lung, Lungs, 8 hours): 78.2 ng/g; Kp at 8 h (lung, Lungs, 8 hours): 0.94; concentration at 0.25 h (Adipose tissue, 0.25 hours): 1530 ng/g; Kp at 0.25 h (Adipose tissue, 0.25 hours): 0.54; concentration at 2 h (Adipose tissue, 2 hours): 2030 ng/g; Kp at 2 h (Adipose tissue, 2 hours): 1.03; concentration at 8 h (Adipose tissue, 8 hours): 47.2 ng/g; Kp at 8 h (Adipose tissue, 8 hours): 0.57; concentration at 0.25 h (Brain, 0.25 hours): 624 ng/g; Kp at 0.25 h (Brain, 0.25 hours): 0.22; concentration at 2 h (Brain, 2 hours): 494 ng/g; Kp at 2 h (Brain, 2 hours): 0.25; concentration at 8 h (Brain, 8 hours): 33.6 ng/g; Kp at 8 h (Brain, 8 hours): 0.4; concentration at 0.25 h (Heart, 0.25 hours): 1490 ng/g; Kp at 0.25 h (Heart, 0.25 hours): 0.53; concentration at 2 h (Heart, 2 hours): 2230 ng/g; Kp at 2 h (Heart, 2 hours): 1.13; concentration at 8 h (Heart, 8 hours): 64.8 ng/g; Kp at 8 h (Heart, 8 hours): 0.78; concentration at 0.25 h (Kidney, 0.25 hours): 2360 ng/g; Kp at 0.25 h (Kidney, 0.25 hours): 0.83; concentration at 2 h (Kidney, 2 hours): 2520 ng/g; Kp at 2 h (Kidney, 2 hours): 1.27; concentration at 8 h (Kidney, 8 hours): 64.2 ng/g; Kp at 8 h (Kidney, 8 hours): 0.77; concentration at 0.25 h (Liver, 0.25 hours): 9890 ng/g; Kp at 0.25 h (Liver, 0.25 hours): 3.49; concentration at 2 h (Liver, 2 hours): 9140 ng/g; Kp at 2 h (Liver, 2 hours): 4.63; concentration at 8 h (Liver, 8 hours): 255 ng/g; Kp at 8 h (Liver, 8 hours): 3.06; concentration at 0.25 h (Lungs, 0.25 hours): 3090 ng/g; Kp at 0.25 h (Lungs, 0.25 hours): 1.09; concentration at 2 h (Lungs, 2 hours): 2520 ng/g; Kp at 2 h (Lungs, 2 hours): 1.28; concentration at 0.25 h (Pancreas, 0.25 hours): 2700 ng/g; Kp at 0.25 h (Pancreas, 0.25 hours): 0.95; concentration at 2 h (Pancreas, 2 hours): 2740 ng/g; Kp at 2 h (Pancreas, 2 hours): 1.39; concentration at 8 h (Pancreas, 8 hours): 117 ng/g; Kp at 8 h (Pancreas, 8 hours): 1.41; concentration at 0.25 h (Plasma, 0.25 hours): 2830 ng/mL; concentration at 2 h (Plasma, 2 hours): 1980 ng/mL; concentration at 8 h (Plasma, 8 hours): 83.1 ng/mL; concentration at 0.25 h (Skeletal Muscle, 0.25 hours): 607 ng/g; Kp at 0.25 h (Skeletal Muscle, 0.25 hours): 0.21; concentration at 2 h (Skeletal Muscle, 2 hours): 734 ng/g; Kp at 2 h (Skeletal Muscle, 2 hours): 0.37; concentration at 8 h (Skeletal Muscle, 8 hours): 316 ng/g; Kp at 8 h (Skeletal Muscle, 8 hours): 3.81; concentration at 0.25 h (Small intestine, 0.25 hours): 16700 ng/g; Kp at 0.25 h (Small intestine, 0.25 hours): 5.9; concentration at 2 h (Small intestine, 2 hours): 18800 ng/g; Kp at 2 h (Small intestine, 2 hours): 9.53; concentration at 8 h (Small intestine, 8 hours): 74.4 ng/g; Kp at 8 h (Small intestine, 8 hours): 0.9; concentration at 0.25 h (Spleen, 0.25 hours): 3360 ng/g; Kp at 0.25 h (Spleen, 0.25 hours): 1.19; concentration at 2 h (Spleen, 2 hours): 1450 ng/g; Kp at 2 h (Spleen, 2 hours): 0.73; concentration at 8 h (Spleen, 8 hours): 121 ng/g; Kp at 8 h (Spleen, 8 hours): 1.46; concentration at 0.25 h (Stomach, 0.25 hours): 33700 ng/g; Kp at 0.25 h (Stomach, 0.25 hours): 11.9; concentration at 2 h (Stomach, 2 hours): 41500 ng/g; Kp at 2 h (Stomach, 2 hours): 21; concentration at 8 h (Stomach, 8 hours): 290 ng/g; Kp at 8 h (Stomach, 8 hours): 3.5
